Active and inactive are the calls of the source. The calls are words filed in the database; no cut-off is given here.
Tests used:
PANC-1 [1] = test: Cytotoxicity against human PANC-1 cells incubated for 72 hrs by MTT assay; format: functional, cell-based; conditions: PANC-1, 72 h
MIA PaCa-2 [2] = test: Cytotoxicity against human MIA PaCa-2 cells at greater than 10 uM incubated for 7 to 10 days by crystal violet staining based assay; format: functional, cell-based; conditions: time 7-10 day
HCT-116 [3] = test: Cytotoxicity against human HCT-116 cells at greater than 10 uM incubated for 7 to 10 days by crystal violet staining based assay; format: functional, cell-based; conditions: time 7-10 day
PANC-1 [4] = test: Cytotoxicity against human PANC-1 cells at greater than 10 uM incubated for 7 to 10 days by crystal violet staining based assay; format: functional, cell-based; conditions: time 7-10 day
HCT-116 [5] = test: Cytotoxicity against human HCT-116 cells incubated for 72 hrs by MTT assay; format: functional, cell-based; conditions: HCT-116, 72 h
MIA PaCa-2 [6] = test: Cytotoxicity against human MIA PaCa-2 cells incubated for 72 hrs by MTT assay; format: functional, cell-based; conditions: MIA PaCa-2, 72 h
HCT-116 [7] = test: Cytotoxicity against human HCT-116 cells at less than 10 uM incubated for 7 to 10 days by crystal violet staining based assay; format: functional, cell-based; conditions: time 7-10 day
MIA PaCa-2 [8] = test: Cytotoxicity against human MIA PaCa-2 cells at less than 10 uM incubated for 7 to 10 days by crystal violet staining based assay; format: functional, cell-based; conditions: time 7-10 day
PANC-1 [9] = test: Cytotoxicity against human PANC-1 cells at less than 10 uM incubated for 7 to 10 days by crystal violet staining based assay; format: functional, cell-based; conditions: time 7-10 day
Calf thymus DNA = test: Binding affinity to calf thymus pUC19 DNA assessed as intercalating activity by measuring conformational change in DNA at 50 to 100 uM incubated for 30 mins by EtBr staining based agarose gel electrophoresis; format: nucleic-acid assay; conditions: Bos taurus, dose 50-100 µM
[10] = test system: DNA topoisomerase 1/Deoxyribonucleic acid (Homo sapiens); test: Induction of TOP1-DNA covalent complex degradation in human HCT-116 cells at 1 uM by RADAR assay; format: cell-based; conditions: time 2-24 hrs, TDE = time-dependent effect
[11] = test system: DNA topoisomerase 1/Deoxyribonucleic acid (Homo sapiens); test: Induction of TOP1-DNA covalent complex stabilization in human HCT-116 cells at 10 to 20 uM after 4 to 6 hrs by RADAR assay; format: cell-based; conditions: dose 10-20 µM, time 4-6 hrs
HCT-116 [12] = test: Induction of TOP1-DNA covalent complex PARlyation in human HCT-116 cells at 1 uM measured upto 24 hrs by RADAR assay; format: functional, cell-based
[13] = test system: DNA topoisomerase 1/Deoxyribonucleic acid (Homo sapiens); test: Induction of TOP1-DNA covalent complex stabilization in human HCT-116 cells at 10 to 20 uM after 2 hrs by RADAR assay; format: cell-based; conditions: dose 10-20 µM
HCT-116 [14] = test: Induction of PARylation in human HCT-116 cells at 20 uM incubated for 2 to 8 hrs by Western blotting analysis; format: functional, cell-based; conditions: time 2-8 hrs

With `O=C1c2cccc3cccc(c23)C(=O)N1CCSc1nnc(CCCn2nc(Cc3ccc(F)cc3)c3ccccc3c2=O)o1` the IC50 (PANC-1 [1]) was > 25 µM, the Activity (MIA PaCa-2 [2]) was “Active” and the Activity (HCT-116 [3]) was “Active”. For the same compound, the Activity (PANC-1 [4]) was “Active”, the IC50 (HCT-116 [5]) was > 25 µM and the IC50 (MIA PaCa-2 [6]) was > 25 µM.
In the case of `O=C1c2cccc3cccc(c23)C(=O)N1CCSc1nnc(CCCn2nc(Cc3ccccc3)c3ccccc3c2=O)o1`, the IC50 (PANC-1 [1]) is reported as > 25 µM, the Activity (MIA PaCa-2 [2]) is reported as “Active” and the Activity (HCT-116 [3]) is reported as “Active”. The Activity (PANC-1 [4]) was “Active”, the IC50 (HCT-116 [5]) was > 25 µM and the IC50 (MIA PaCa-2 [6]) was > 25 µM.
For `O=C1c2cccc3cccc(c23)C(=O)N1CCSc1nnc(Cn2nc(Cc3ccccc3)c3ccccc3c2=O)o1`, the IC50 (PANC-1 [1]) was > 25 µM, the Activity (MIA PaCa-2 [2]) was “Active” and the Activity (HCT-116 [3]) was “Active”. For the same compound, the Activity (PANC-1 [4]) was “Active”, the IC50 (HCT-116 [5]) was > 25 µM and the IC50 (MIA PaCa-2 [6]) was > 25 µM.
For `O=C1c2cccc3cccc(c23)C(=O)N1CCCc1nnc(Cn2nc(Cc3ccc(F)cc3)c3ccccc3c2=O)o1`, the IC50 (PANC-1 [1]) was > 25 µM, the Activity (MIA PaCa-2 [2]) was “Active” and the Activity (HCT-116 [3]) was “Active”. For the same compound, the Activity (PANC-1 [4]) was “Active”, the IC50 (HCT-116 [5]) was > 25 µM and the IC50 (MIA PaCa-2 [6]) was > 25 µM.
With `COc1ccc(Cc2nn(Cc3nnc(SCCN4C(=O)c5cccc6cccc(c56)C4=O)o3)c(=O)c3ccccc23)cc1` the IC50 (PANC-1 [1]) was 13 µM, the Activity (HCT-116 [7]) was “Active” and the Activity (MIA PaCa-2 [8]) was “Active”. The IC50 (HCT-116 [5]) was 13.5 µM, the Activity (PANC-1 [9]) was “Active” and the IC50 (MIA PaCa-2 [6]) was 14 µM.
For `O=C1c2cccc3cccc(c23)C(=O)N1CCCc1nnc(CCn2nc(Cc3ccc(F)cc3)c3ccccc3c2=O)o1`, the IC50 (PANC-1 [1]) was > 25 µM, the Activity (MIA PaCa-2 [2]) was “Active” and the Activity (HCT-116 [3]) was “Active”. For the same compound, the Activity (PANC-1 [4]) was “Active”, the IC50 (HCT-116 [5]) was > 25 µM and the IC50 (MIA PaCa-2 [6]) was > 25 µM.
With `COc1ccc(Cc2nn(CCCc3nnc(SCCN4C(=O)c5cccc6cccc(c56)C4=O)o3)c(=O)c3ccccc23)cc1` the IC50 (PANC-1 [1]) was > 25 µM, the Activity (MIA PaCa-2 [2]) was “Active” and the Activity (HCT-116 [3]) was “Active”. For the same compound, the Activity (PANC-1 [4]) was “Active”, the IC50 (HCT-116 [5]) was > 25 µM and the IC50 (MIA PaCa-2 [6]) was > 25 µM.
`COc1cccc2c1C(=O)c1c(O)c3c(c(O)c1C2=O)C[C@@](O)(C(=O)CO)C[C@@H]3O[C@H]1C[C@H](N)[C@H](O)[C@H](C)O1` was tested, and the Activity (Calf thymus DNA) was “Active”.
In the case of `CC[C@@]1(O)C(=O)OCc2c1cc1n(c2=O)Cc2cc3ccccc3nc2-1`, the Activity [10] is reported as “Tde”, the Activity [11] is reported as “inactive” and the Activity (HCT-116 [12]) is reported as “Active”. For the same compound, the Activity [13] was “Active”.
With `O=C1c2cccc3cccc(c23)C(=O)N1CCSc1nnc(CCn2nc(Cc3ccc(F)cc3)c3ccccc3c2=O)o1` the IC50 (PANC-1 [1]) was 13 µM, the Activity (HCT-116 [7]) was “Active” and the Activity (MIA PaCa-2 [8]) was “Active”. For the same compound, the IC50 (HCT-116 [5]) was 12.5 µM, the Activity (PANC-1 [9]) was “Active” and the IC50 (MIA PaCa-2 [6]) was 11 µM.
`COc1ccc(Cc2nn(CCc3nnc(SCCN4C(=O)c5cccc6cccc(c56)C4=O)o3)c(=O)c3ccccc23)cc1` was tested, and the IC50 (PANC-1 [1]) was > 25 µM, the Activity (MIA PaCa-2 [2]) was “Active” and the Activity (HCT-116 [3]) was “Active”. The Activity (PANC-1 [4]) was “Active”, the IC50 (HCT-116 [5]) was > 25 µM and the IC50 (MIA PaCa-2 [6]) was > 25 µM.
In the case of `O=C1c2cccc3cccc(c23)C(=O)N1CCSc1nnc(CCn2nc(Cc3ccccc3)c3ccccc3c2=O)o1`, the IC50 (PANC-1 [1]) is reported as > 25 µM, the IC50 (HCT-116 [5]) is reported as > 25 µM and the IC50 (MIA PaCa-2 [6]) is reported as > 25 µM.
`O=C1NC(=O)c2cccc3cccc1c23` was tested, and the IC50 (PANC-1 [1]) was 20 µM, the IC50 (HCT-116 [5]) was 15 µM and the IC50 (MIA PaCa-2 [6]) was 18 µM.
With `O=C(c1cc(Cc2n[nH]c(=O)c3ccccc23)ccc1F)N1CCN(C(=O)C2CC2)CC1` [OLAPARIB] the IC50 (PANC-1 [1]) was 7 µM, the Activity (HCT-116 [14]) was “inactive” and the IC50 (HCT-116 [5]) was 9 µM. For the same compound, the IC50 (MIA PaCa-2 [6]) was 8 µM.
`CN(C)c1ccc2cc3ccc(N(C)C)cc3nc2c1` was tested, and the Activity (Calf thymus DNA) was “Active”.

— ChEMBL document CHEMBL5620416, “Design, synthesis and development of a dual inhibitor of Topoisomerase 1 and poly (ADP-ribose) polymerase 1 for efficient killing of cancer cells” (Eur J Med Chem, 2023)
